Assays:
[1] = system: POLCO—Wild buckwheat (Polygonum convolvulus); test: General postemergence herbicidal activity, wild buckwheat; assay type: in vivo; settings: Fallopia convolvulus, post-emergence, 336 h; post-emergent, rate 140 g ai/ha, visual score after 14 days (0 no injury, 100 complete kill); read-out: % Growth Reduction POLCO
Experimental: (§1) Seeds or nutlets of the desired test plant species were planted in Sun Gro MetroMix® 306 planting mixture, which typically has a pH of 6.0 to 6.8 and an organic matter content of about 30 percent, in plastic pots with a surface area of 64 square centimeters. When required to ensure good germination and healthy plants, a fungicide treatment and/or other chemical or physical treatment was applied. The plants were grown for 7-21 days in a greenhouse with an approximate 15 hour photoperiod which was maintained at about 23-29° C. during the day and 22-28° C. during the night. Nutrients and water were added on a regular basis and supplemental lighting was provided with overhead metal halide 1000-Watt lamps as necessary. The plants were employed for testing when they reached the first or second true leaf stage.
(§2) A weighed amount, determined by the highest rate to be tested, of each test compound was placed in a 25 mL glass vial and was dissolved in 4 mL of a 97:3 v/v (volume/volume) mixture of acetone and dimethyl sulfoxide (DMSO) to obtain concentrated stock solutions. […] The concentrated stock solutions obtained were diluted with 20 mL of an aqueous mixture containing acetone, water, isopropyl alcohol, DMSO, Atplus 411F crop oil concentrate, and Triton X-155 surfactant in a 48.5:39:10:1.5:1.0:0.02 v/v ratio to obtain spray solutions containing the highest application rates. Additional application rates were obtained by serial dilution of 12 mL of the high rate solution into a solution containing 2 mL of 97:3 v/v (volume/volume) mixture of acetone and DMSO and 10 mL of an aqueous mixture containing acetone, water, isopropyl alcohol, DMSO, Atplus 411F crop oil concentrate, and Triton X-155 surfactant in a 48.5:39:10:1.5:1.0:0.02 v/v ratio to obtain ½X, ¼X, ⅛X and 1/16X rates of the high rate. Compound requirements are based upon a 12 mL application volume at a rate of 187 L/ha. Formulated compounds were applied to the plant material with an overhead Mandel track sprayer equipped with 8002E nozzles calibrated to deliver 187 L/ha over an application area of 0.503 square meters at a spray height of 18 inches […] above the average plant canopy height. Control plants were sprayed in the same manner with the solvent blank.
(§3) The treated plants and control plants were placed in a greenhouse as described above and watered by sub-irrigation to prevent wash-off of the test compounds. After 14 days, the condition of the test plants as compared with that of the untreated plants was determined visually and scored on a scale of 0 to 100 percent where 0 corresponds to no injury and 100 corresponds to complete kill.

[2] = system: HELAN—Common sunflower (Helianthus annuus); test: General preemergence herbicidal activity, common sunflower; assay type: in vivo; settings: pre-emergent, rate 140 g ai/ha, visual score after 20-22 days (0 no injury, 100 complete kill or no emergence), read-out: % Growth Inhibition HELAN
From the text: (§4) Seeds of the desired test plant species were planted in a soil matrix prepared by mixing a loam soil (43 percent silt, 19 percent clay, and 38 percent sand, with a pH of about 8.1 and an organic matter content of about 1.5 percent) and sand in a 70 to 30 ratio. The soil matrix was contained in plastic pots with a surface area of 113 square centimeters. When required to ensure good germination and healthy plants, a fungicide treatment and/or other chemical or physical treatment was applied. A weighed amount, determined by the highest rate to be tested, of each test compound was placed in a 25 mL glass vial and was dissolved in 6 mL of a 97:3 v/v (volume/volume) mixture of acetone and DMSO to obtain concentrated stock solutions. […] The stock solutions obtained were diluted with 18 mL of a 0.1% v/v aqueous solution of Tween® 20 surfactant to obtain spray solutions containing the highest application rate. Additional application rates were obtained by serial dilution of 12 mL of the high rate solution into a solution containing 3 mL of 97:3 v/v mixture of acetone and DMSO and 9 mL of the 0.1% v/v aqueous solution of Tween® 20 surfactant to obtain 1⁄2X, 1⁄4X, 1⁄8X and 1/16X rates of the high rate. Compound requirements are based upon a 12 mL application volume at a rate of 187 L/ha. Formulated compounds were applied to the plant material with an overhead Mandel track sprayer equipped with […] nozzles calibrated to deliver 187 L/ha over an application area of 0.503 square meters at a spray height of 18 inches (43 cm) above the soil surface. Control plants were sprayed in the same manner with the solvent blank. The treated pots and control pots were placed in a greenhouse maintained with an approximate 15 hour photoperiod and temperatures of about 23-29° C. during the day and 22-28° C. during the night. Nutrients and water were added on a regular basis and supplemental lighting was provided with overhead metal halide 1000-Watt lamps as necessary. The water was added by top-irrigation. After 20-22 days, the condition of the test plants that germinated and grew as compared with that of the untreated plants that emerged and grew was determined visually and scored on a scale of 0 to 100 percent where 0 corresponds to no injury and 100 corresponds to complete kill or no emergence.

[3] = system: ABUTH—Velvetleaf (Abutilon theophrasti); test: General postemergence herbicidal activity, velvetleaf; assay type: in vivo; settings: post-emergence, 336 h, post-emergent, rate 140 g ai/ha, visual score after 14 days (0 no injury, 100 complete kill), read-out: % Growth Reduction ABUTH
Experimental: as §1, §2, §3

[4] = system: ABUTH—Velvetleaf (Abutilon theophrasti); test: General preemergence herbicidal activity, velvetleaf; assay type: in vivo; settings: pre-emergent, rate 140 g ai/ha, visual score after 20-22 days (0 no injury, 100 complete kill or no emergence), read-out: % Growth Inhibition ABUTH
From the text: as §4

[5] = system: SORVU—Common sorghum (Sorghum vulgare); test: General preemergence herbicidal activity, common sorghum; assay type: in vivo; settings: pre-emergent, rate 140 g ai/ha, visual score after 20-22 days (0 no injury, 100 complete kill or no emergence), read-out: % Growth Inhibition SORVU
From the text: as §4

[6] = system: CIRAR—Canada thistle (Cirsium arvense); test: General postemergence herbicidal activity, Canada thistle; assay type: in vivo; settings: post-emergence, 336 h, post-emergent, rate 140 g ai/ha, visual score after 14 days (0 no injury, 100 complete kill), read-out: % Growth Reduction CIRAR
Experimental: as §1, §2, §3

[7] = system: ECHCG—Barnyardgrass (Echinochloa crus-galli); test: General postemergence herbicidal activity, barnyardgrass; assay type: in vivo; settings: post-emergence, 336 h, post-emergent, rate 140 g ai/ha, visual score after 14 days (0 no injury, 100 complete kill), read-out: % Growth Reduction ECHCG
Experimental: as §1, §2, §3

[8] = system: CHEAL—Common lambsquarters (Chenopodium album); test: General preemergence herbicidal activity, common lambsquarters; assay type: in vivo; settings: pre-emergent, rate 140 g ai/ha, visual score after 20-22 days (0 no injury, 100 complete kill or no emergence), read-out: % Growth Inhibition CHEAL
From the text: as §4

ZEAMX—Corn (Zea mays) = test: General preemergence herbicidal activity, corn; assay type: in vivo; settings: pre-emergent, rate 140 g ai/ha, visual score after 20-22 days (0 no injury, 100 complete kill or no emergence), read-out: % Growth Inhibition ZEAMX
From the text: as §4

melting point [°C] | Structure (SMILES) | pest or weed control at 140 g/ha [1] [%] | inhibition at 140 g/ha [2] [%] | pest or weed control at 140 g/ha [3] [%] | inhibition at 140 g/ha [4] [%] | inhibition at 140 g/ha [5] [%] | pest or weed control at 140 g/ha [6] [%] | pest or weed control at 140 g/ha [7] [%] | inhibition at 140 g/ha [8] [%] | inhibition at 140 g/ha (ZEAMX—Corn (Zea mays)) [%]
194 to 196 | Nc1nc(-c2ccc(Cl)cc2F)nc(C(=O)O)c1Cl [Compound 11, 6-Amino-5-chloro-2-(4-chloro-2-fluorophenyl)pyrimidine-4-carboxylic acid] | 100 | 95 | 99 | 90 | 95 | 100 | 85 | 100 | 0
209 to 211 | Nc1nc(-c2ccc(Cl)c(F)c2F)nc(C(=O)O)c1Cl [Compound 12, 6-Amino-5-chloro-2-(4-chloro-2,3-difluorophenyl)pyrimidine-4-carboxylic acid] | 100 | 100 | 100 | 100 | 90 | 90 | 90 | 100 | 15
 | Nc1nc(-c2ccc(C(F)(F)F)c(F)c2F)nc(C(=O)O)c1Cl [Compound 16, 6-Amino-5-chloro-2-(2,3-difluoro-4-trifluoromethylphenyl)pyrimidine-4-carboxylic acid] | 95 | 65 | 65 | 60 | 60 | 90 | 90 | 100 | 30
 | Cc1ccc(-c2nc(N)c(Cl)c(C(=O)O)n2)c(F)c1F [Compound 14, 6-Amino-5-chloro-2-(2,3-difluoro-4-methylphenyl)pyrimidine-4-carboxylic acid] | 80 | 60 | 90 | 100 | 40 | 85 | 95 | 100 | 30
